From patent US10144952B2, “Stabilization and isolation of extracellular nucleic acids” (QIAGEN GmbH, priority 2013, dated 2018)
Counter-ions that a name gives are not always drawn. Where a SMILES comes first, the peptide text is derived from it. The star is where a group is joined. Cbz = O=C(OCc1ccccc1)*; CH2F = FC*

Key:
[1] = tested on: Bid-induced cyctochrome c release from HeLa cell mitochondria; details: at 5 μM; cited from earlier work
cathepsin L = cathepsin L (Homo sapiens, UniProt P07711); details: cited from earlier work
calpain II = biological target: T1, calpain II (Homo sapiens, UniProt P17655); details: irreversible inhibitor; cited from earlier work
T1 sequence (P17655 1-700): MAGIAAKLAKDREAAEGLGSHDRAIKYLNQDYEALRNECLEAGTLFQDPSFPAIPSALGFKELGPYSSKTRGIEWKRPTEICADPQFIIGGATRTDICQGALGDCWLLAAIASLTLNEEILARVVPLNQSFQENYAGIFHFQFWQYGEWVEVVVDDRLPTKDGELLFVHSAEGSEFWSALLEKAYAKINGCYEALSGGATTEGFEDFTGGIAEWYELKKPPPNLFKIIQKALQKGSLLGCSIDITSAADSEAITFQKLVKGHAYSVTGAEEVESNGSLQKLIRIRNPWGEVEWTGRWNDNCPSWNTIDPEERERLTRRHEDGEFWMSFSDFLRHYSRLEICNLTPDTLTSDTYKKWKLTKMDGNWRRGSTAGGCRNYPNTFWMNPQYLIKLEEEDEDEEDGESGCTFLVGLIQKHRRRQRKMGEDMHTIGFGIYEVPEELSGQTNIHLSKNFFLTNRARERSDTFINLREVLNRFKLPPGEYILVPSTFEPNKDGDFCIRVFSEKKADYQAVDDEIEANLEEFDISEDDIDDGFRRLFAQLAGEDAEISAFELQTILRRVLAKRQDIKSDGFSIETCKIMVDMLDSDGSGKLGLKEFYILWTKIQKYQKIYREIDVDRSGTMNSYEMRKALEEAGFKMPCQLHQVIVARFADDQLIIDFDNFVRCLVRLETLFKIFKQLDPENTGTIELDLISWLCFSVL
T1 sequence (P04632 1-268 partner): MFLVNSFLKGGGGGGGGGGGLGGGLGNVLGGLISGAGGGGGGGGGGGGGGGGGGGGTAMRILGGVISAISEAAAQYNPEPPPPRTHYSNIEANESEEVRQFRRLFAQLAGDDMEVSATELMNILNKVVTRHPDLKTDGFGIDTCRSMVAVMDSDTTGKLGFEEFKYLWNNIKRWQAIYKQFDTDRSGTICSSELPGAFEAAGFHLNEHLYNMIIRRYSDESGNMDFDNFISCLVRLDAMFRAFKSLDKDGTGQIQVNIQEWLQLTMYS

[2] = tested on: transcriptional activation of COX-2; details: cited from earlier work
[3] = tested on: etoposide-induced cortical neuron death; details: cited from earlier work
[4] = cited from earlier work; for t1/2: buffer
[5] = tested on: release of genomic DNA from white blood cells in whole blood (18S ribosomal DNA 66 bp and 500 bp amplicons); assay: 18S rDNA qPCR: increase of DNA in plasma of stored whole blood; type: cell-based, human; details: for increase of 18S DNA from day 0: Example 5, 2.1, 20 μM, within 7 days of storage at RT; for released DNA / stabilization capability: 3 and 6 days at room temperature
Description: Detection of ribosomal 18S DNA by quantitative real-time PCR, makes it possible to calculate the x-fold increase of DNA from day 0 to day 3 or 7 (calculation: division of day 3 (or 7) copies by day 0 copies).

cells = details: cited from earlier work
[6] = tested on: ladder-like pattern of genomic DNA fragments (apoptosis) in whole blood; assay: chip gel electrophoresis of circulating cell-free DNA; type: cell-based; details: 20 μM in whole blood; day 3 and day 7
Procedure: 1.3.1 Measurement of the blood cell stability/DNA release by the determination of DNA size distribution using a chip gel electrophoresis (2100 Bioanalyzer; Agilent Technologies; Inc., USA) according to manufacturer's instruction (see handbook Agilent DNA 7500 and DNA 12000 Kit Guide), but 1.5 μl instead of 1 μl sample were transferred to the wells.
Each tested caspase inhibitor was added to whole blood samples (20 μM end concentration in 10 ml blood; blood was collected into Vacutainer K2E Tubes; BD). The whole blood sample was processed as described in section 1 (plasma preparation and nucleic acid isolation).
The eluted circulating cell-free DNA was separated by size using chip gel electrophoresis (for details on the method see above). […] The DMSO control and the K2E blood (not treated according to the teachings of the present invention) show the same ladder-like pattern of bands. This pattern occurs in samples where apoptosis takes place. During apoptosis, endonucleases degrade genomic DNA at inter-nucleosomal linker regions and produce DNA fragments of circa 180 bp or multiples of 180 bp. Thus, apoptosis occurs in samples which show a clear ladder-like pattern. Furthermore, the strength (darkness) of the pattern is decisive. The darker the bands, the more genomic DNA was released from the cells and thus contaminates the extracellular nucleic acid population.

[7] = tested on: myocardial infarct size during reperfusion; details: cited from earlier work

cathepsin L, sequence (P07711 114-333, species assumed): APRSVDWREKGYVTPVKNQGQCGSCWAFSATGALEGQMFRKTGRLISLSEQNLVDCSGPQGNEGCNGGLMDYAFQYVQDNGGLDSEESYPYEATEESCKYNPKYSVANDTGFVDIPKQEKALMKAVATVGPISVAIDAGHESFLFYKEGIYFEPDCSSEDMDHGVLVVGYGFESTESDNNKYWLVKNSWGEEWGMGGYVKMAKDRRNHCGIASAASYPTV

Which “inhibition of Bid-induced cytochrome c release” value [1] does the source give for OC(CN1CCNCC1)Cn1c2ccc(Br)cc2c2cc(Br)ccc21 (racemic) [Bax Channel Blocker, (±)-1-(3,6-Dibromocarbazol-9-yl)-3-piperazin-1-yl-propan-2-ol,bis TFA] here?
Its value is “cyctochrome c release from HeLa cell mitochondria (~80%”.

For CC(C)C[C@H](NC(=O)OCc1ccccc1)C(=O)N[C@@H](CC(C)C)C(=O)N[C@@H](Cc1ccc(O)cc1)C(=O)CF [Calpain Inhibitor IV, Z-Leu-Leu-Tyr-CH2F] (HELM PEPTIDE1{[O=C(OCc1ccccc1)[*:2]].L.L.Y.[FC[*:1]]}$$$$V2.0), which “k2 cathepsin L” value (cathepsin L) is on record?
Its value is 680,000 M-1s-1).

And the “k2 calpain II” value (calpain II)?
Its value is 28,900 M-1s-1). Also acts as an inhibitor of cathepsin L (k2 =.

Which IC50 [2] does the source give for O=c1c(O)c(-c2ccc(O)cc2)oc2cc(O)cc(O)c12 [Kaempferol] here?
Its IC50 is under 15 µM.

For O=[N+]([O-])c1ccc(-c2cn3c4c(sc3n2)CCCC4)cc1 [Pifithrin-α, p-Nitro, Cyclic], which “fold higher potency than Pifithrin-α” value [3] is on record?
Its value is “A cell-permeable p53 inhibitor that exhibits 10-fold higher potency”.

What about the t1/2 [4] of the same molecule?
The t1/2 was 6 h.

What about the “longer half-life than Pifithrin-α” value ([4]; neuron culture medium at 37° C.) of the same molecule?
Its value is 50%.

Which t1/2 [4] does the source give for N=c1sc2c(n1CC(=O)c1ccc([N+](=O)[O-])cc1)CCCC2 [Pifithrin-α, p-Nitro] here?
The t1/2 was “biological systems (t1/2 = 8h in neuron culture medium at 37° C.)”.

Which “increase of 18S DNA from day 0” value [5] does the source give for CC(C)C(NC(=O)c1ccc2ccccc2n1)C(=O)NC(CC(=O)O)C(=O)COc1c(F)cccc1F (stereo not drawn) [Q-VD-OPh, Quinoline-Val-Asp-CH2-OPH] here?
The value was “reduced increase of DNA”.

What about the toxicity to cells (cells) of the same molecule?
The toxicity to cells was “not toxic to cells even at extremely high concentrations”.

And the “ladder-like pattern of cell-free DNA” value [6]?
The value was “significantly reduced ladder-like patterns”.

Which “increase of 18S DNA from day 0” value [5] does the source give for COC(=O)C[C@H](NC(=O)[C@H](C)NC(=O)[C@@H](NC(=O)OCc1ccccc1)C(C)C)C(=O)CF [Z-Val-Ala-Asp(OMe)-FMK] (Cbz-Val-Ala-Asp(OMe)-CH2F) here?
The value was “more prominent on day 7”.

What about the “ladder-like pattern of cell-free DNA” value [6] of the same molecule?
Its value is “reduced ladder-like pattern”.

Which results are given for CCCC(N)=O [butanamide]?
released DNA / stabilization capability ([5]; Example 2, 2.5, 3 or 3.5% butanamide or 5% DMAA with 1 μM caspase inhibitor and EDTA): at least comparable stabilization capabilities to DMAA; released DNA / stabilization capability ([5]; Example 3, butanamide 0.5-2% with DMPA 2.5-1%, 1 μM caspase inhibitor, EDTA): comparable stabilization capabilities; increase in 18S rDNA ([5]; Example 4, 0.5, 1.5 and 2.5% (w/v) butanamide with 1 μM caspase inhibitor and EDTA): significantly reduced increase in 18S rDNA

For “Ac-Leu-Glu-His-Asp-CMK (LEHD; HELM PEPTIDE1{[ac].L.E.H.D.[ClC[*:1]]}$$$$V2.0; SMILES CC(=O)N[C@@H](CC(C)C)C(=O)N[C@@H](CCC(=O)O)C(=O)N[C@@H](Cc1c[nH]cn1)C(=O)N[C@@H](CC(=O)O)C(=O)CCl) [Caspase-9 Inhibitor III]”, which “concentration reported to reduce myocardial infarct size” value [7] is on record?
Its value is “myocardial infarct size during reperfusion (~70 nM)”.
